Experimental data: ChEMBL document CHEMBL4033742, “Novel 3-fluoro-6-methoxyquinoline derivatives as inhibitors of bacterial DNA gyrase and topoisomerase IV” (Bioorg Med Chem Lett, 2017)
≈ marks a conversion by molar mass, not a printed value.

What was measured:
[1] = Inhibition of Staphylococcus aureus DNA topoisomerase 4
[2] = Inhibition of Staphylococcus aureus DNA gyrase
[3] = Ratio of fAUC in fluoroquinolone-resistant Staphylococcus aureus infected mouse neutropenic thigh model to MIC for fluoroquinolone-resistant Staphylococcus aureus
Staphylococcus aureus [4] = experiment: Antibacterial activity against Staphylococcus aureus containing DNA gyrase M121K mutations; format: functional
Staphylococcus aureus [5] = experiment: Antibacterial activity against Staphylococcus aureus containing DNA gyrase D83N mutations; format: functional
Staphylococcus aureus [6] = experiment: Antibacterial activity against fluoroquinolone-sensitive Staphylococcus aureus 1146; format: functional
Staphylococcus aureus [7] = experiment: Antibacterial activity against fluoroquinolone-resistant Staphylococcus aureus 1095; format: functional
Staphylococcus aureus [8] = experiment: Antibacterial activity against Staphylococcus aureus; format: functional
Streptococcus pyogenes = experiment: Antibacterial activity against Streptococcus pyogenes; format: functional
[9] = Fraction unbound in mouse plasma; format: ADME, cell-free
[10] = Fraction unbound in rat plasma; format: ADME, cell-free
[11] = Fraction unbound in human plasma; format: ADME, cell-free
[12] = Clearance in mouse at 10 mg/kg, iv; format: ADME, organism-based; conditions: in vivo
[13] = Volume of distribution at steady state in mouse at 10 mg/kg, iv; format: ADME, organism-based; conditions: in vivo, read-out: Vdss
[14] = Half life in mouse at 10 mg/kg, iv; format: ADME, organism-based; conditions: in vivo
[15] = Half life in rat at 2 mg/kg, iv; format: ADME, organism-based; conditions: in vivo
Staphylococcus aureus [16] = experiment: Antibacterial activity against fluoroquinolone-resistant Staphylococcus aureus infected in mouse neutropenic thigh model assessed as static dose required for bacterial stasis; format: functional
[17] = biological target: Voltage-gated inwardly rectifying potassium channel KCNH2 (Homo sapiens, UniProt Q12809); experiment: Inhibition of human ERG
Sequence of Voltage-gated inwardly rectifying potassium channel KCNH2 (Q12809 whole entry): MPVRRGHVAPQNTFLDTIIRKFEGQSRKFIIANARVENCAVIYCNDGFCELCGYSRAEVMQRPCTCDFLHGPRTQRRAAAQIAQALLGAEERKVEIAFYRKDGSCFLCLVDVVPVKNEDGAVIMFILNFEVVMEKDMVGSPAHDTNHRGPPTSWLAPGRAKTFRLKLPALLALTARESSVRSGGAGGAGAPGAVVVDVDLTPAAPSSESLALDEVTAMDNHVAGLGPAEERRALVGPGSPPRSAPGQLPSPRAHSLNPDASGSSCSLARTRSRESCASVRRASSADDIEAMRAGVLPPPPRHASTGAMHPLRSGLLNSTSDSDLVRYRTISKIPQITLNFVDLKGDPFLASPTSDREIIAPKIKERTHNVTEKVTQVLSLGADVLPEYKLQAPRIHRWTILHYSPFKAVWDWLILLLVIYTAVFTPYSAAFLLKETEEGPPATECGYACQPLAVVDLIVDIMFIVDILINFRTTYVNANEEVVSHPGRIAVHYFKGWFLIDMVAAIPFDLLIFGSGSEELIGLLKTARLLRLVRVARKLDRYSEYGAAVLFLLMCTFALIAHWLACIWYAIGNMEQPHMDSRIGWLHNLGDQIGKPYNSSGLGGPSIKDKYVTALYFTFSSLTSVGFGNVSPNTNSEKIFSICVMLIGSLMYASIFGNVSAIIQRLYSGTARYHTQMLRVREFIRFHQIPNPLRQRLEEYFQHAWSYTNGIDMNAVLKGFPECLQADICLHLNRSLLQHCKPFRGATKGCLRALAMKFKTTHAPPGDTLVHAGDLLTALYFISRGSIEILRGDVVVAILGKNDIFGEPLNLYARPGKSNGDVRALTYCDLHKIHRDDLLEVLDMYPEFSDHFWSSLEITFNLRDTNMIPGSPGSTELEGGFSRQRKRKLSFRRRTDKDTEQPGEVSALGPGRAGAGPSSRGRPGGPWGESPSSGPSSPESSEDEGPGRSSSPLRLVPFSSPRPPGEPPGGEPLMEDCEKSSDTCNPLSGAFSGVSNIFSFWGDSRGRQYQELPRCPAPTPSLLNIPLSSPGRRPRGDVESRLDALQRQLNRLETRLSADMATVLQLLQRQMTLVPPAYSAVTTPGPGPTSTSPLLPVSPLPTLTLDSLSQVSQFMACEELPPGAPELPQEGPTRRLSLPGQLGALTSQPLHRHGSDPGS

[18] = Clearance in rat at 2 mg/kg, iv; format: ADME, organism-based; conditions: in vivo
[19] = Volume of distribution at steady state in rat at 2 mg/kg, iv; format: ADME, organism-based; conditions: in vivo, read-out: Vdss

COc1ccc2nccc([C@@H](O)CC[C@@H]3CCN(CCSc4cccs4)C[C@@H]3C(=O)O)c2c1
IC50 [1]: 84.6 µM
IC50 [2]: 2420 nM

COc1ccc2ncc(F)c(C[C@H](O)[C@@H]3CC[C@@H](NCc4cc5c(nn4)OCCS5)CO3)c2n1
Ratio [3]: 43

COc1ccc2nccc([C@@H](O)CC[C@@H]3CCN(C4CC(c5cc(F)ccc5F)C4)C[C@@H]3C(=O)O)c2c1 (some centres not stated)
IC50 [1]: 9.62 µM
IC50 [2]: 3000 nM

COc1ccc2ncc(F)c([C@@H](O)CC[C@@H]3CCN(C4CC(c5cccc(F)c5)C4)C[C@@H]3C(=O)O)c2c1 (some centres not stated)
MIC (Staphylococcus aureus [4]): 16 µg/mL (≈ 31.3 µM)
MIC (Staphylococcus aureus [5]): 16 µg/mL (≈ 31.3 µM)
IC50 [1]: 19 µM
IC50 [2]: 780 nM
MIC (Staphylococcus aureus [6]): ≤ 0.0625 µg/mL
MIC (Staphylococcus aureus [7]): 0.25 µg/mL (≈ 0.49 µM)
MIC90 (Staphylococcus aureus [8]): 0.25 µg/mL (≈ 0.49 µM)
MIC90 (Streptococcus pyogenes): 0.5 µg/mL (≈ 0.979 µM)

COc1ccc2nccc([C@@H](O)CC[C@@H]3CCN(C4CC(c5ccccc5)C4)C[C@@H]3C(=O)O)c2c1 (some centres not stated)
MIC (Staphylococcus aureus [4]): ≥ 64 µg/mL
IC50 [1]: 32.1 µM
IC50 [2]: 1190 nM
MIC90 (Staphylococcus aureus [8]): 0.25 to 1 µg/mL (≈ 0.527 to 2.11 µM)
MIC90 (Streptococcus pyogenes): 1 to 2 µg/mL (≈ 2.11 to 4.21 µM)
fraction unbound [9]: 0.129 to 0.246
fraction unbound [10]: 0.296 to 0.437
fraction unbound [11]: 0.079 to 0.155
clearance [12]: 36 mL/min/kg
Vd [13]: 1.06 L/kg
half-life [14]: 20.4 min
half-life [15]: 19.8 min
Activity (Staphylococcus aureus [16]): 123.1 mg/kg/day

COc1ccc2ncc(F)c([C@@H](O)CC[C@@H]3CCN(C4CC(c5cc(F)cc(F)c5)C4)C[C@@H]3C(=O)O)c2c1 (some centres not stated)
MIC (Staphylococcus aureus [5]): 5.7 µg/mL (≈ 10.8 µM)
IC50 [1]: 6.25 µM
IC50 [2]: 1200 nM
MIC (Staphylococcus aureus [6]): 0.125 µg/mL (≈ 0.236 µM)
MIC (Staphylococcus aureus [7]): 0.35 µg/mL (≈ 0.662 µM)
MIC90 (Staphylococcus aureus [8]): 0.25 µg/mL (≈ 0.473 µM)
MIC90 (Streptococcus pyogenes): 1 µg/mL (≈ 1.89 µM)

COc1ccc2ncc(F)c([C@@H](O)CC[C@@H]3CCN(C4CC(c5ccc(F)s5)C4)C[C@@H]3C(=O)O)c2c1 (some centres not stated)
MIC (Staphylococcus aureus [4]): 16 µg/mL (≈ 31 µM)
MIC (Staphylococcus aureus [5]): 16 µg/mL (≈ 31 µM)
IC50 [1]: 19 µM
IC50 [2]: 780 nM
MIC (Staphylococcus aureus [6]): ≤ 0.0625 µg/mL
MIC (Staphylococcus aureus [7]): ≤ 0.0625 µg/mL
MIC90 (Staphylococcus aureus [8]): 0.125 µg/mL (≈ 0.242 µM)
MIC90 (Streptococcus pyogenes): 0.5 µg/mL (≈ 0.968 µM)

COc1ccc2ncc(F)c([C@@H](O)CC[C@@H]3CCN(C4CC(c5ccccc5)C4)C[C@@H]3C(=O)O)c2c1 (some centres not stated)
MIC (Staphylococcus aureus [4]): 8 µg/mL (≈ 16.2 µM)
IC50 [17]: 22.3 µM
MIC (Staphylococcus aureus [5]): 22.6 µg/mL (≈ 45.9 µM)
IC50 [1]: 15.9 µM
IC50 [2]: 1150 nM
MIC (Staphylococcus aureus [6]): 0.069 µg/mL (≈ 0.14 µM)
MIC (Staphylococcus aureus [7]): 0.125 µg/mL (≈ 0.254 µM)
MIC90 (Staphylococcus aureus [8]): 0.25 µg/mL (≈ 0.508 µM)
MIC90 (Streptococcus pyogenes): 1 µg/mL (≈ 2.03 µM)
fraction unbound [9]: 0.15 to 0.158
fraction unbound [10]: 0.277 to 0.334
fraction unbound [11]: 0.122 to 0.211
clearance [12]: 17.3 mL/min/kg
Vd [13]: 1.01 L/kg
half-life [14]: 40.2 min
clearance [18]: 18.4 mL/min/kg
Vd [19]: 1.82 L/kg
half-life [15]: 68.4 min
Activity (Staphylococcus aureus [16]): 92.1 mg/kg/day

CN[C@H](CC(C)C)C(=O)N[C@H]1C(=O)N[C@@H](CC(N)=O)C(=O)N[C@H]2C(=O)N[C@H]3C(=O)N[C@H](C(=O)N[C@H](C(=O)O)c4cc(O)cc(O)c4-c4cc3ccc4O)[C@H](O)c3ccc(c(Cl)c3)Oc3cc2cc(c3O[C@@H]2O[C@H](CO)[C@@H](O)[C@H](O)[C@H]2O[C@H]2C[C@](C)(N)[C@H](O)[C@H](C)O2)Oc2ccc(cc2Cl)[C@H]1O [VANCOMYCIN]
Activity (Staphylococcus aureus [16]): 29 mg/kg/day

COc1ccc2ncc(F)c([C@@H](O)CC[C@@H]3CCN(C4CC(c5cncc(F)c5)C4)C[C@@H]3C(=O)O)c2c1 (some centres not stated)
MIC (Staphylococcus aureus [5]): > 64 µg/mL
IC50 [1]: > 120 µM
IC50 [2]: 4700 nM
MIC (Staphylococcus aureus [6]): 2 µg/mL (≈ 3.91 µM)
MIC (Staphylococcus aureus [7]): 32 µg/mL (≈ 62.6 µM)

COc1ccc2ncc(F)c([C@@H](O)CC[C@@H]3CCN(C4CC(c5cccs5)C4)C[C@@H]3C(=O)O)c2c1 (some centres not stated)
MIC (Staphylococcus aureus [4]): 16 µg/mL (≈ 32.1 µM)
MIC (Staphylococcus aureus [5]): 11.3 µg/mL (≈ 22.7 µM)
IC50 [1]: 9.4 µM
IC50 [2]: 780 nM
MIC (Staphylococcus aureus [6]): ≤ 0.0625 µg/mL
MIC (Staphylococcus aureus [7]): 0.125 µg/mL (≈ 0.251 µM)
MIC90 (Staphylococcus aureus [8]): 0.125 µg/mL (≈ 0.251 µM)
MIC90 (Streptococcus pyogenes): 0.5 µg/mL (≈ 1 µM)

COc1ccc2ncc(F)c([C@@H](O)CC[C@@H]3CCN(C4CC(c5ccccc5F)C4)C[C@@H]3C(=O)O)c2c1 (some centres not stated)
MIC (Staphylococcus aureus [4]): 16 µg/mL (≈ 31.3 µM)
MIC (Staphylococcus aureus [5]): 16 µg/mL (≈ 31.3 µM)
IC50 [1]: 19 µM
IC50 [2]: 780 nM
MIC (Staphylococcus aureus [6]): ≤ 0.0625 µg/mL
MIC (Staphylococcus aureus [7]): 0.125 µg/mL (≈ 0.245 µM)
MIC90 (Staphylococcus aureus [8]): 0.125 µg/mL (≈ 0.245 µM)
MIC90 (Streptococcus pyogenes): 0.5 µg/mL (≈ 0.979 µM)
